In patent publication US11939361B2, “Compositions of peptide inhibitors of Interleukin-23 receptor” (Janssen Pharmaceutica NV, priority 2020, dated 2024):
Read-outs that look alike come from different tables or passages of the source.

Legend:
[1] = Colon and colonic content concentrations in rat TNBS colitis model (LC-MS/MS); format: in vivo, Sprague Dawley rats; details: Sprague Dawley, po
Method: […] In all studies, the peptide of SEQ ID NO: 1 was dosed starting 2 days prior to TNBS induction through day 6, with euthanasia scheduled on day 7.
At the end of each study, colonic content and colon tissue samples were collected from each animal and analyzed for drug concentrations by LC-MS/MS.

[2] = tested on: IL-23 induced IFNγ production; test: Ex vivo whole blood IL-23-induced IFNγ production assay, FIH MAD cohorts; format: in vivo
Method: An ex vivo whole blood IL-23 induced IFNγ assay was used to evaluate the systemic pharmacodynamic activity of the orally administered peptide of SEQ ID NO: 1 in the first-in-human study. […] On Days 1 and 10, when the assay was performed, subjects received their dose of placebo or peptide of SEQ ID NO: 1 following an overnight fast of approximately 10 hours and remained fasted for approximately 4 hours following dosing. After oral dosing on days 1 and 10, whole blood from the subjects was stimulated ex vivo with either IL-2 (10 ng/mL) and IL-18 (20 ng/mL) or IL-2 (10 ng/mL), IL-18 (20 ng/mL), and IL-23 (0.5 ng/mL) in TruCulture™ tubes (Rules Based Medicine, Q^2 solutions company) for stimulation of IFNγ production. The production of IFNγ is expected to be suppressed if IL-23R signaling is inhibited. Therefore, lower IFNγ production in the assay is associated with sufficient exposure to achieve systemic pharmacodynamic (PD) activity of orally dosed peptide of SEQ ID NO: 1.
Whole blood was collected in TruCulture™ tubes according to manufacturer instructions, the tubes were incubated at 37° C. in a block thermostat for 24 hours (±1 hour). Following incubation at 37° C., supernatants were harvested according to TruCultube™ tube manufacturer instructions (Rules Based Medicine, Q^2 solutions company). An ELISA assay was used to quantify the levels of IFNg in the supernatants.

[3] = tested on: IL-23 induced phosphorylation of STAT3; test: Ex vivo whole blood phosphorylation of STAT3 assay, FIH 25 mg MAD cohort; format: in vivo; details: human, 25 mg oral once a day, 3 subjects, 100 ng/mL IL-23
Method: An ex vivo whole blood IL-23 induced STAT3 phosphorylation assay was also used to evaluate the systemic pharmacodynamic activity of the orally administered peptide of SEQ ID NO: 1 in the first-in-human study. This proximal IL-23R signaling assay was performed by analyzing IL-23 induced phosphorylation of STAT3 using a flow cytometer. Assay was implemented in the 25 mg MAD cohort, at multiple timepoints on Day 1 and Day 10, where healthy volunteers were given placebo or 25 mg of peptide of SEQ ID NO: 1 orally once a day for 10 consecutive days. On Days 1 and 10, when the assay was performed, subjects received their dose of placebo or peptide of SEQ ID NO: 1 following an overnight fast of approximately 10 hours and remained fasted for approximately 4 hours following dosing. […] Therefore, lower STAT3 phosphorylation as readout by the assay is associated with sufficient exposure to achieve systemic pharmacodynamic activity of orally dosed peptide of SEQ ID NO: 1. Since there is no dilution of blood required, and the readout is more proximal than IFNγ production, and the response is measured in the specific subset of immune cells that respond to IL-23, the pSTAT3 assay is a more sensitive pharmacodynamic readout than IFNγ. […]

[4] = human, 25 mg, 100 mg, 300 mg and 1000 mg cohorts, oral once a day

In the case of `CC(=O)NCCCC[C@@H]1NC(=O)[C@H](Cc2c[nH]c3c(C)cccc23)NC(=O)[C@H]([C@@H](C)O)NC(=O)[C@H](CC(N)=O)NC(=O)[C@@H](NC(C)=O)C(C)(C)SSC(C)(C)[C@@H](C(=O)N[C@@H](Cc2ccc(OCCN)cc2)C(=O)N[C@@H](Cc2ccc3ccccc3c2)C(=O)NC2(C(=O)N[C@@H](CCC(=O)O)C(=O)N[C@@H](CC(N)=O)C(=O)N[C@@H](Cc3cccnc3)C(=O)N(C)CC(N)=O)CCOCC2)NC1=O` [SEQ ID NO: 1, Ac-[Pen]*—N-T-[W(7-Me)]-[Lys(Ac)]-[Pen]*-Phe[4-(2-aminoethoxy)]-[2-Nal]-[THP]-E-N-[3-Pal]-Sarc-NH2], the tissue level at time at 168 h ([1]; colon content, 0.033 mg/kg, Study 3, 0.033 mg/kg TID oral, total daily dose 0.1 mg/kg, read-out: Mean concentration in Colon content) is reported as 567 ng/g, the tissue level at time at 168 h ([1]; colon content, 0.1 mg/kg, Study 2, 0.1 mg/kg TID oral, total daily dose 0.3 mg/kg, read-out: Mean concentration in Colon content) is reported as 1990 ng/g and the tissue level at time at 168 h ([1]; colon content, 0.1 mg/kg, Study 3, 0.1 mg/kg TID oral, total daily dose 0.3 mg/kg, read-out: Mean concentration in Colon content) is reported as 3180 ng/g. For the same compound, the tissue level at time at 168 h ([1]; colon content, 0.33 mg/kg, Study 2, 0.33 mg/kg TID oral, total daily dose 1 mg/kg, read-out: Mean concentration in Colon content) was 7440 ng/g, the tissue level at time at 168 h ([1]; colon content, 0.33 mg/kg, Study 3, 0.33 mg/kg TID oral, total daily dose 1 mg/kg, read-out: Mean concentration in Colon content) was 6050 ng/g and the tissue level at time at 168 h ([1]; colon content, 0.5 mg/kg, Study 2, 0.5 mg/kg BID oral, total daily dose 1 mg/kg, read-out: Mean concentration in Colon content) was 11200 ng/g. The tissue level at time at 168 h ([1]; colon content, 1 mg/kg, Study 2, 1 mg/kg QD oral, total daily dose 1 mg/kg, read-out: Mean concentration in Colon content) was 11700 ng/g, the tissue level at time at 168 h ([1]; colon content, 1 mg/kg, Study 2, 1 mg/kg TID oral, total daily dose 3 mg/kg, read-out: Mean concentration in Colon content) was 22200 ng/g and the tissue level at time at 168 h ([1]; colon content, 1 mg/kg, Study 3, 1 mg/kg TID oral, total daily dose 3 mg/kg, read-out: Mean concentration in Colon content) was 20800 ng/g. For the same compound, the tissue level at time at 168 h ([1]; colon content, 3.3 mg/kg, Study 2, 3.3 mg/kg TID oral, total daily dose 10 mg/kg, read-out: Mean concentration in Colon content) was 73500 ng/g, the tissue level at time at 168 h ([1]; colon, 0.1 mg/kg, Study 3, 0.1 mg/kg TID oral, total daily dose 0.3 mg/kg, read-out: Mean concentration in Colon) was 44.4 ng/g and the tissue level at time at 168 h ([1]; colon, 0.33 mg/kg, Study 3, 0.33 mg/kg TID oral, total daily dose 1 mg/kg, read-out: Mean concentration in Colon) was 158 ng/g. For the same compound, the tissue level at time at 168 h ([1]; colon, 1 mg/kg, Study 3, 1 mg/kg TID oral, total daily dose 3 mg/kg, read-out: Mean concentration in Colon) was 509 ng/g, the “inhibition of IL-23 stimulated IFNγ production in human whole blood” value ([2]; 10-1000 mg oral once a day, Day 1 and Day 10) was “dose dependent inhibition” and the “maximum inhibition of IL-23 induced IFNγ production (mean systemic PD activity)” value [2, 4] was ~100%. The “time for which >50% inhibition of IFNγ production was maintained” value [2, 4] was ≥ 8 h and the “inhibition of STAT3 phosphorylation in memory CD26high CD4+ T cells, memory CD26high CD8+ T cells and CD26high NKT cells” value [3] was “near-complete inhibition”.
